In PubChem BioAssay AID292 (DTP/NCI, 2004):
Toxic doses and inconclusive results are not listed. The calls were made as follows: active = survival T/C of 150% or more; inactive = T/C below 125% in these data.

Tested on: B6C3F1 mice, ip Sarcoma M5076, median survival T/C
Assay: NCI In Vivo Anticancer Drug Screen. Data for tumor model Sarcoma M5076 (intraperitoneal) in B6C3F1 mice
Conditions: endpoint: median survival time, higher = longer survival
How it was run: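 Tumour cells were transplanted into mice, compound or vehicle was given, survival of both groups was followed, and the treated figure was expressed over the control figure.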

[1] = dose: 18.75 mg/kg/injection, schedule: Q04DX004 (ip), vehicle: saline with Tween-80
[2] = dose: 37.5 mg/kg/injection, schedule: Q04DX004 (ip), vehicle: saline with Tween-80
[3] = dose: 75.0 mg/kg/injection, schedule: Q04DX004 (ip), vehicle: saline with Tween-80
[4] = dose: 50.0 mg/kg/injection, schedule: Q04DX004 (ip), vehicle: Klucel (hydroxypropylcellulose) (HPC)
[5] = dose: 100.0 mg/kg/injection, schedule: Q04DX004 (ip), vehicle: Klucel (hydroxypropylcellulose) (HPC)

Measured: T/C

O=C1c2c(O)ccc(O)c2C(=O)c2c(NCCNCCO)ccc(NCCNCCO)c21
active: dose: 0.25 mg/kg/injection, schedule: Q04DX005 (ip), vehicle: saline 319 % of control | dose: 0.5 mg/kg/injection, schedule: Q04DX004 (ip), vehicle: water 161 % of control | dose: 0.5 mg/kg/injection, schedule: Q04DX005 (ip), vehicle: saline 319 % of control | dose: 1.0 mg/kg/injection, schedule: Q04DX004 (ip), vehicle: water 174 % of control | dose: 1.0 mg/kg/injection, schedule: Q04DX005 (ip), vehicle: saline 319 % of control | dose: 2.0 mg/kg/injection, schedule: Q04DX004 (ip), vehicle: water 224 % of control | dose: 2.0 mg/kg/injection, schedule: Q04DX005 (ip), vehicle: saline 298 % of control

O=[N+]([O-])c1ccc(/C=C/C=C/C=C/C=C/c2ccc(S(=O)(=O)F)cc2Cl)c(Cl)c1
inactive: [1] 95 % of control | [2] 96 % of control | [3] 98 % of control

O=c1c2cc3ccccc3cc2c(=O)n2n1CC=CC2
inactive: dose: 20.31 mg/kg/injection, schedule: Q04DX004 (ip), vehicle: Klucel (hydroxypropylcellulose) (HPC) 100 % of control | dose: 40.63 mg/kg/injection, schedule: Q04DX004 (ip), vehicle: Klucel (hydroxypropylcellulose) (HPC) 99 % of control | dose: 81.25 mg/kg/injection, schedule: Q04DX004 (ip), vehicle: Klucel (hydroxypropylcellulose) (HPC) 99 % of control | dose: 162.5 mg/kg/injection, schedule: Q04DX004 (ip), vehicle: Klucel (hydroxypropylcellulose) (HPC) 99 % of control | dose: 325.0 mg/kg/injection, schedule: Q04DX004 (ip), vehicle: Klucel (hydroxypropylcellulose) (HPC) 99 % of control

Cn1c2c(c3nc(N)nc(N)c3c1=O)CCc1ccccc1-2
inactive: dose: 25.0 mg/kg/injection, schedule: Q04DX004 (ip), vehicle: distilled water + alcohol 100 % of control | dose: 50.0 mg/kg/injection, schedule: Q04DX004 (ip), vehicle: distilled water + alcohol 104 % of control | dose: 100.0 mg/kg/injection, schedule: Q04DX004 (ip), vehicle: distilled water + alcohol 100 % of control

CC(NNC(=S)N(C)C1CCCCC1)c1cc2ccccc2cn1 (stereo unspecified)
inactive: dose: 50.0 mg/kg/injection, schedule: Q04DX004 (ip), vehicle: saline 102 % of control | dose: 100.0 mg/kg/injection, schedule: Q04DX004 (ip), vehicle: saline 105 % of control | dose: 200.0 mg/kg/injection, schedule: Q04DX004 (ip), vehicle: saline 111 % of control

C=CC(=O)OCCOCN(COCCOC(=O)C=C)c1nc(N(COCCOC(=O)C=C)COCCOC(=O)C=C)nc(N(COCCOC(=O)C=C)COCCOC(=O)C=C)n1
inactive: [1] 103 % of control | [2] 100 % of control | [3] 110 % of control | dose: 150.0 mg/kg/injection, schedule: Q04DX004 (ip), vehicle: saline with Tween-80 104 % of control

N#CC1C(=O)NC(=O)C(C#N)C1C1C(=O)NC2CCCCC21 (stereo unspecified)
inactive: dose: 43.75 mg/kg/injection, schedule: Q04DX004 (ip), vehicle: saline with Tween-80 93 % of control | dose: 87.5 mg/kg/injection, schedule: Q04DX004 (ip), vehicle: saline with Tween-80 100 % of control | dose: 175.0 mg/kg/injection, schedule: Q04DX004 (ip), vehicle: saline with Tween-80 95 % of control | dose: 350.0 mg/kg/injection, schedule: Q04DX004 (ip), vehicle: saline with Tween-80 95 % of control

COc1ccc(OC)c(N2C(=O)C(=O)C(C(C)=O)C2=O)c1 (stereo unspecified)
inactive: [4] 104 % of control | [5] 100 % of control

COC1OC(COC(C)=O)C(OC(C)=O)C(OC(C)=O)[CH]1[Hg][O]C(C)=O (stereo unspecified)
inactive: dose: 6.25 mg/kg/injection, schedule: Q04DX004 (ip), vehicle: Klucel (hydroxypropylcellulose) (HPC) 95 % of control | dose: 12.5 mg/kg/injection, schedule: Q04DX004 (ip), vehicle: Klucel (hydroxypropylcellulose) (HPC) 96 % of control

CC1(C)C2CCC(C2)C1/C=C1/SC(=S)NC1=O (stereo unspecified)
inactive: dose: 25.0 mg/kg/injection, schedule: Q04DX004 (ip), vehicle: Klucel (hydroxypropylcellulose) (HPC) 95 % of control | [4] 98 % of control | [5] 90 % of control | dose: 200.0 mg/kg/injection, schedule: Q04DX004 (ip), vehicle: Klucel (hydroxypropylcellulose) (HPC) 91 % of control | dose: 400.0 mg/kg/injection, schedule: Q04DX004 (ip), vehicle: Klucel (hydroxypropylcellulose) (HPC) 87 % of control

O=CC(CO)CC(C=O)n1cnc2c(=O)[nH]cnc21 (stereo unspecified)
inactive: dose: 37.0 mg/kg/injection, schedule: Q04DX004 (ip), vehicle: saline 104 % of control | dose: 75.0 mg/kg/injection, schedule: Q04DX004 (ip), vehicle: saline 105 % of control | dose: 300.0 mg/kg/injection, schedule: Q04DX004 (ip), vehicle: saline 124 % of control
